How the values were obtained:
[1] = molecular target: T1, Lysosomal acid glucosylceramidase (Homo sapiens, UniProt P04062); assay: Inhibition of human GCase assessed as reduction of 4-methylumbelliferone liberation using 4-methylumbelliferyl-beta-glucopyranoside as substrate preincubated with enzyme for 45 mins followed by substrate addition and measured after 30 mins by fluorescence spectrophotometry
T1 sequence (P04062 whole entry): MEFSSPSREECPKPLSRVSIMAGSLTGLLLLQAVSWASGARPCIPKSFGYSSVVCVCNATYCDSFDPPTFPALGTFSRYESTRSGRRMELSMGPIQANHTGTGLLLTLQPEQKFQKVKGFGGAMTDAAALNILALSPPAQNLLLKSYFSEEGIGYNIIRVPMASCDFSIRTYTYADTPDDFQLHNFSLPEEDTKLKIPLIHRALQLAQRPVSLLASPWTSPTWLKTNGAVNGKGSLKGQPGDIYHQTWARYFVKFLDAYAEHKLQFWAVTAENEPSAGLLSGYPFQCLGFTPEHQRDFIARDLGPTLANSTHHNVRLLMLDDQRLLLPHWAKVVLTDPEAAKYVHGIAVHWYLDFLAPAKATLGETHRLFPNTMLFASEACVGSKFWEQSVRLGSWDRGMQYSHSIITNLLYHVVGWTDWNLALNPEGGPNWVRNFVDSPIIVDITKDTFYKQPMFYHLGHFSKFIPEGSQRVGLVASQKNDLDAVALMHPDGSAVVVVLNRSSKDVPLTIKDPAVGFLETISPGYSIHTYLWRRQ

[2] = tested on: Saccharomyces cerevisiae; assay: Inhibition of yeast alpha-glucosidase assessed as reduction of p-nitrophenol release using p-nitrophenyl-glycoside as substrate at 1000 uM by spectrophotometric analysis
[3] = molecular target: Lysosomal alpha-glucosidase (Rattus norvegicus) (UniProt Q6P7A9); assay: Inhibition of rat small intestinal maltase assessed as reduction of D-glucose release using maltose as substrate at 1000 uM by colorimetric analysis; assay type: tissue-based; settings: Small intestine
[4] = molecular target: Sucrase-isomaltase, intestinal (Rattus norvegicus, UniProt P23739); assay: Inhibition of rat small intestinal sucrase assessed as reduction of p-nitrophenol release using p-nitrophenyl-glycoside as substrate by spectrophotometric analysis; assay type: tissue-based, Small intestine
[5] = organism: Bos taurus; assay: Inhibition of bovine liver beta-glucosidase assessed as reduction of p-nitrophenol release using p-nitrophenyl-glycoside as substrate at 1000 uM by spectrophotometric analysis
[6] = Inhibition of human lysosomal beta-glucosidase assessed as reduction of p-nitrophenol release using p-nitrophenyl-glycoside as substrate by spectrophotometric analysis; assay type: subcellular, Lysosome
[7] = tested on: Penicillium decumbens; assay: Inhibition of Penicillium decumbens alpha-L-rhamnosidase assessed as reduction of p-nitrophenol release using p-nitrophenyl-glycoside as substrate at 1000 uM by spectrophotometric analysis
[8] = Inhibition of Escherichia coli beta-glucuronidase assessed as reduction of p-nitrophenol release using p-nitrophenyl-glycoside as substrate by spectrophotometric analysis
[9] = molecular target: T2, Alpha-mannosidase (Canavalia ensiformis) (UniProt C0HJB3); assay: Inhibition of jack bean alpha-mannosidase assessed as reduction of p-nitrophenol release using p-nitrophenyl-glycoside as substrate at 1000 uM by spectrophotometric analysis
T2 sequence (whole entry): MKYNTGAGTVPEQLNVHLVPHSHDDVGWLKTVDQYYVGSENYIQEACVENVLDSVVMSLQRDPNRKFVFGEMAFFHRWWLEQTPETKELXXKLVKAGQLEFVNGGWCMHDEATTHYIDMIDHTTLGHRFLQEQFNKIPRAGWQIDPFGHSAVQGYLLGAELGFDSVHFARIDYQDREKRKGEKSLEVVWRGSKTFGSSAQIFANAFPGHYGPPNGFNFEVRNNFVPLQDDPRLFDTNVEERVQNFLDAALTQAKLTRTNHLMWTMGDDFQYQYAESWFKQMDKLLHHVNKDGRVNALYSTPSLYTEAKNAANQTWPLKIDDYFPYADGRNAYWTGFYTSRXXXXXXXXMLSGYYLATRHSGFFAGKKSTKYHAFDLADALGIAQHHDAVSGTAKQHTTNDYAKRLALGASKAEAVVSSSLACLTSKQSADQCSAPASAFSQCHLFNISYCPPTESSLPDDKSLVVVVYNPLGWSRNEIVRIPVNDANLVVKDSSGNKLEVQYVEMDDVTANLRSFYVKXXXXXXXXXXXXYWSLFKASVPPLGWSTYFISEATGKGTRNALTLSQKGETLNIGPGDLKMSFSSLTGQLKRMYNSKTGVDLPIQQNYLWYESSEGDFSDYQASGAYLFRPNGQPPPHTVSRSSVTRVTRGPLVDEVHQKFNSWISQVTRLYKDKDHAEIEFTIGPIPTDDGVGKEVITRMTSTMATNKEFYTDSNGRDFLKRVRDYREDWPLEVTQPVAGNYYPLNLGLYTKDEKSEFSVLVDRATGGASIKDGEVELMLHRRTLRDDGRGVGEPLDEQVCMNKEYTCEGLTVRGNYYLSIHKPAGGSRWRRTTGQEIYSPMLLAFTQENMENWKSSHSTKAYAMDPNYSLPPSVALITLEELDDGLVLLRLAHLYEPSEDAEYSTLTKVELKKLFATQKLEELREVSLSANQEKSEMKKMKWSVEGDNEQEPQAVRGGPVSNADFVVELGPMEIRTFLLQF

[10] = tested on: Helix pomatia; assay: Inhibition of snail beta-mannosidase assessed as reduction of p-nitrophenol release using p-nitrophenyl-glycoside as substrate at 1000 uM by spectrophotometric analysis
[11] = molecular target: Lysosomal alpha-glucosidase (Homo sapiens) (UniProt P10253); assay: Inhibition of human lysosomal alpha-glucosidase assessed as reduction of p-nitrophenol release using p-nitrophenyl-glycoside as substrate at 1000 uM by spectrophotometric analysis; settings: Lysosome
[12] = tested on: Aspergillus niger; assay: Inhibition of Aspergillus niger amyloglucosidase assessed as reduction of p-nitrophenol release using p-nitrophenyl-glycoside as substrate at 1000 uM by spectrophotometric analysis
[13] = organism: Bos taurus; assay: Inhibition of bovine liver beta-glucuronidase assessed as reduction of p-nitrophenol release using p-nitrophenyl-glycoside as substrate at 1000 uM by spectrophotometric analysis
[14] = molecular target: T3, Tissue alpha-L-fucosidase (Bos taurus) (UniProt Q2KIM0); assay: Inhibition of bovine kidney alpha-L-fucosidase assessed as reduction of p-nitrophenol release using p-nitrophenyl-glycoside as substrate at 1000 uM by spectrophotometric analysis; assay type: tissue-based
T3 sequence (whole entry): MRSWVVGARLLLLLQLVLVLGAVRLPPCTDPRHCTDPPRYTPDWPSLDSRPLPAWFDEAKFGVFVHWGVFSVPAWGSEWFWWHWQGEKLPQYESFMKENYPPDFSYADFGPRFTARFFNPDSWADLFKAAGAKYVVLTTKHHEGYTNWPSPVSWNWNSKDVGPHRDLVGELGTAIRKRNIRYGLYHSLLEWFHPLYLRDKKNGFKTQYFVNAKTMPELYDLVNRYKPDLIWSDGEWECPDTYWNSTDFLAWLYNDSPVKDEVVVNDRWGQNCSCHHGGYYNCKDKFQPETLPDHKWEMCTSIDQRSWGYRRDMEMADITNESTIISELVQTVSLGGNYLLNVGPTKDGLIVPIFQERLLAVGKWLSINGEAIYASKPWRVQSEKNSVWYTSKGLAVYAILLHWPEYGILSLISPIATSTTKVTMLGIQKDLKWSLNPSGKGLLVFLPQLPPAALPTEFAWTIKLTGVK

[15] = molecular target: Alpha-galactosidase (Coffea arabica) (UniProt Q42656); assay: Inhibition of coffee beans alpha-galactosidase assessed as reduction of p-nitrophenol release using p-nitrophenyl-glycoside as substrate at 1000 uM by spectrophotometric analysis
[16] = Inhibition of bovine liver beta-galactosidase assessed as reduction of p-nitrophenol release using p-nitrophenyl-glycoside as substrate by spectrophotometric analysis; set-up: species or system Bos taurus
[17] = organism: Sus scrofa; assay: Inhibition of porcine kidney alpha-trehalase assessed as reduction of p-nitrophenol release using p-nitrophenyl-glycoside as substrate at 1000 uM by spectrophotometric analysis; assay type: tissue-based
[18] = tested on: Oryza sativa; assay: Inhibition of rice alpha-glucosidase assessed as reduction of p-nitrophenol release using p-nitrophenyl-glycoside as substrate at 1000 uM by spectrophotometric analysis
[19] = tested on: Prunus dulcis; assay: Inhibition of almond beta-glucosidase assessed as reduction of p-nitrophenol release using p-nitrophenyl-glycoside as substrate at 1000 uM by spectrophotometric analysis
[20] = organism: Bos taurus; assay: Inhibition of bovine liver beta-galactosidase assessed as reduction of p-nitrophenol release using p-nitrophenyl-glycoside as substrate at 1000 uM by spectrophotometric analysis
[21] = tested on: Escherichia coli; assay: Inhibition of Escherichia coli beta-glucuronidase assessed as reduction of p-nitrophenol release using p-nitrophenyl-glycoside as substrate at 1000 uM by spectrophotometric analysis
[22] = Inhibition of rice alpha-glucosidase assessed as reduction of p-nitrophenol release using p-nitrophenyl-glycoside as substrate by spectrophotometric analysis; set-up: species or system Oryza sativa

Sequence of Sucrase-isomaltase, intestinal (P23739 1-1013 limits assumed): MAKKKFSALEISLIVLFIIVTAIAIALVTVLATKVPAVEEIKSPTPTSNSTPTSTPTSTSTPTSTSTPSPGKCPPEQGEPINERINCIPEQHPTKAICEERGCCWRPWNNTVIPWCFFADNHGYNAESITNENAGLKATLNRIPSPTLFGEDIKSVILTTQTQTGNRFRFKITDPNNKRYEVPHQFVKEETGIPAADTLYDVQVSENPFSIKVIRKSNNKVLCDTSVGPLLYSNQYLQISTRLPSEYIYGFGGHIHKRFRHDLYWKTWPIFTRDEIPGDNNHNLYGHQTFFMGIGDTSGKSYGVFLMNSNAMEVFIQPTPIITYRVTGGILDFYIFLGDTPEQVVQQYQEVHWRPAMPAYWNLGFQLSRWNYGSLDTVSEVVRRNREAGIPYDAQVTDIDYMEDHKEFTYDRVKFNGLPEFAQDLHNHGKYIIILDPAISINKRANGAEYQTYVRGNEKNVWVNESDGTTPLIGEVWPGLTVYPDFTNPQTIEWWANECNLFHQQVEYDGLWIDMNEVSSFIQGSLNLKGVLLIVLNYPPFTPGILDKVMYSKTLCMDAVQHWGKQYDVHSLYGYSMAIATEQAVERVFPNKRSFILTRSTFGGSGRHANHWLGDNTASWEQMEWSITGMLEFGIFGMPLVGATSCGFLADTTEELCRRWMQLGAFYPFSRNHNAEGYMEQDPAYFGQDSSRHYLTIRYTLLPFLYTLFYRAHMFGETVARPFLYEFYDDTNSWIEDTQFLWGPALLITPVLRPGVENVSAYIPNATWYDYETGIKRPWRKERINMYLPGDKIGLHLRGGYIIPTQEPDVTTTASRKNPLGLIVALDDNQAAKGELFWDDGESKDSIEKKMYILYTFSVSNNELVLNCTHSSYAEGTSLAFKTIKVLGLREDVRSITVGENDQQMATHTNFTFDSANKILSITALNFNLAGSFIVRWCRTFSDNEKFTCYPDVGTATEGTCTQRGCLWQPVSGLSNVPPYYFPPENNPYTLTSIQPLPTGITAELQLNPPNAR
Sequence of Sucrase-isomaltase, intestinal (P23739 1014-1841 limits assumed): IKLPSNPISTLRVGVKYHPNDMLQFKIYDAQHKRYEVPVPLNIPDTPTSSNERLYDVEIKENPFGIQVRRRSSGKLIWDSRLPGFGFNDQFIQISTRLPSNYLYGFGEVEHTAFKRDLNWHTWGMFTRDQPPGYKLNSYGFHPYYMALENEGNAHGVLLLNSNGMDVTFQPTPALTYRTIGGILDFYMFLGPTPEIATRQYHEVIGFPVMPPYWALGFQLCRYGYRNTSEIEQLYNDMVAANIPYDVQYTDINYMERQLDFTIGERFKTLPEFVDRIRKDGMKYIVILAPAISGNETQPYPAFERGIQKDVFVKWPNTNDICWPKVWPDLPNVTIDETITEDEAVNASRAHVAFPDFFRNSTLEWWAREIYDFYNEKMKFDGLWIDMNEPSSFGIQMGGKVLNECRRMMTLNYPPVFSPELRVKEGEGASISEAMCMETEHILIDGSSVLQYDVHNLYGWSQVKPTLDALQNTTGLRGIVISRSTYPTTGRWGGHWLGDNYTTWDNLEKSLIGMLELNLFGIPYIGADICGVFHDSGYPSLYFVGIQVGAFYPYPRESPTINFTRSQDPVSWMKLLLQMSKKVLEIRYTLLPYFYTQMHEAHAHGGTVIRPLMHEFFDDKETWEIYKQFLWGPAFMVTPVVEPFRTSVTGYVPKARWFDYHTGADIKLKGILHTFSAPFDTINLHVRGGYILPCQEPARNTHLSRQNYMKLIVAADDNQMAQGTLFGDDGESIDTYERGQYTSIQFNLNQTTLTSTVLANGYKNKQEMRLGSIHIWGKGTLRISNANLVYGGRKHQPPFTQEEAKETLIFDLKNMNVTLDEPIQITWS
Sequence of Lysosomal alpha-glucosidase (Rattus norvegicus) (Q6P7A9 whole entry): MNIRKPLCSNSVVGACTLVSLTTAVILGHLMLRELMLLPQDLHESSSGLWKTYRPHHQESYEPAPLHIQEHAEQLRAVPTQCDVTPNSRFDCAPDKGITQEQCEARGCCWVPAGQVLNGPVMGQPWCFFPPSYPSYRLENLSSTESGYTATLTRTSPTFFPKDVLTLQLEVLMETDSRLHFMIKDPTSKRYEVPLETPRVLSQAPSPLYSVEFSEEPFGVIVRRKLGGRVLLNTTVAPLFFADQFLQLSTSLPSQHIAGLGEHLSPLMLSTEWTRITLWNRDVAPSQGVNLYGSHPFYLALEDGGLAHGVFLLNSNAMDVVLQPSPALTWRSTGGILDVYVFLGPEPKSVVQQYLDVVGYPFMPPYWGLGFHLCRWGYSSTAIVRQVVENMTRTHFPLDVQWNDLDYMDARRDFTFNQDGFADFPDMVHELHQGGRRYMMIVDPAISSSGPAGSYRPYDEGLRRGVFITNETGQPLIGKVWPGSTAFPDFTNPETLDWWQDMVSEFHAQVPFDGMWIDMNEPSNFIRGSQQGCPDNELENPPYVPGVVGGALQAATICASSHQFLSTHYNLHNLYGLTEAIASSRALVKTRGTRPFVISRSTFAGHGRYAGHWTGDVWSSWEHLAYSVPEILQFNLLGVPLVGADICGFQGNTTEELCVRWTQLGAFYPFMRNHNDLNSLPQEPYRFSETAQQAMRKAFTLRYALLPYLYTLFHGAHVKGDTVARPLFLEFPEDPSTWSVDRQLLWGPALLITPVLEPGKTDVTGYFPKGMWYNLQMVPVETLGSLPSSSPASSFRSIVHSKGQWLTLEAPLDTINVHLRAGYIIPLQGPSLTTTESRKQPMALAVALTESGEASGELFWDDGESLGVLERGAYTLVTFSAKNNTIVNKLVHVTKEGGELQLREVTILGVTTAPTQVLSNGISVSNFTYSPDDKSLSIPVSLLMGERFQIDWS
Sequence of Alpha-galactosidase (Coffea arabica) (Q42656 16-378 limits assumed): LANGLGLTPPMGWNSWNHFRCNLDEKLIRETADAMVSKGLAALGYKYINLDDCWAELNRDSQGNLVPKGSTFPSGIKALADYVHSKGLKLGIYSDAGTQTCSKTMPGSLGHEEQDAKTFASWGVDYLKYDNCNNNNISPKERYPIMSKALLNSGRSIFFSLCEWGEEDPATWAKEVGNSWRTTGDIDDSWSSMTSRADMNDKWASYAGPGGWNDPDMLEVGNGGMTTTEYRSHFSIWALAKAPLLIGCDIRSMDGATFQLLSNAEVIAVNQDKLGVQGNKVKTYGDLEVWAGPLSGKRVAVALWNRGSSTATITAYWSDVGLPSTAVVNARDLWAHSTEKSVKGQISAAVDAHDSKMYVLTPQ

Row | IC50 [1] [µM] | inhibition [2] [%] | inhibition [3] [%] | IC50 [4] [µM] | inhibition [5] [%] | IC50 [6] [µM] | inhibition [7] [%] | inhibition [9] [%] | inhibition [10] [%] | inhibition [11] [%] | inhibition [12] [%] | inhibition [13] [%] | inhibition [14] [%] | inhibition [15] [%] | inhibition [17] [%] | inhibition [19] [%] | other results | SMILES
1 | 30 |  |  |  |  |  |  |  |  |  |  |  |  |  |  |  |  | CCCCCC[C@H]1N[C@H](CO)[C@@H](O)[C@@H]1O
2 |  | 11 | 24.6 | 1210 | 38.2 | 3.4 | 2.8 | 0 | 1.9 | 15 | 0 | 0.3 | 4.2 | 0 | 0 | 13.5 | IC50 [8]: 269 µM; IC50 [16]: 602 µM; inhibition [18]: 22.8% | Cc1ccc([C@H]2NC[C@@H](O)[C@@H]2O)cc1
3 | 2.3 |  |  |  |  |  |  |  |  |  |  |  |  |  |  |  |  | CCCCCCCCCCC[C@H]1N[C@H](CO)[C@@H](O)[C@@H]1O
4 | 0.77 |  |  |  |  |  |  |  |  |  |  |  |  |  |  |  |  | CCCCCCCCCCCCC[C@H]1N[C@H](CO)[C@@H](O)[C@@H]1O
5 |  | 0.3 | 16.5 |  | 31.7 |  | 1.8 | 2 | 1.1 | 24.6 | 0 | 15 | 0 | 2.6 | 5.7 | 3.4 | inhibition [20]: 49%; inhibition [21]: 8.5% | O[C@@H]1[C@@H](O)CN[C@H]1c1ccccc1 [listing 1 of 2 here]
6 |  |  |  | 603 |  | 22 |  |  |  |  |  |  |  |  |  |  | IC50 [22]: 560 µM | O[C@@H]1[C@@H](O)CN[C@H]1c1ccccc1 [listing 2 of 2 here]
7 | 1.9 |  |  |  |  |  |  |  |  |  |  |  |  |  |  |  |  | CCCCCCCCCC[C@H]1N[C@H](CO)[C@@H](O)[C@@H]1O
8 | 38 |  |  |  |  |  |  |  |  |  |  |  |  |  |  |  |  | CCCCCCC[C@H]1N[C@H](CO)[C@@H](O)[C@@H]1O
9 |  | 5.3 | 23.1 | 389 | 46.4 | 8.7 | 2.3 | 0.4 | 2.2 | 4.8 | 2.3 | 0.3 | 0 | 0 | 17.6 | 11 | IC50 [8]: 610 µM; IC50 [16]: 470 µM; inhibition [18]: 15.8% | Cc1ccc([C@@H]2NC[C@H](O)[C@H]2O)cc1
10 | 3.3 |  |  |  |  |  |  |  |  |  |  |  |  |  |  |  |  | CCCCCCCCC[C@H]1N[C@H](CO)[C@@H](O)[C@@H]1O
11 | 34 |  |  |  |  |  |  |  |  |  |  |  |  |  |  |  |  | CCCCC[C@H]1N[C@H](CO)[C@@H](O)[C@@H]1O
12 |  | 5.6 | 14 | 339 | 29 | 6.2 | 0 | 0.8 | 4.8 | 13.4 | 0 | 2 | 0 | 2 | 1.6 | 15 | inhibition [20]: 39.9%; inhibition [21]: 43.4%; inhibition [18]: 47.3% | O[C@H]1[C@H](O)CN[C@@H]1c1ccc(F)cc1
13 | 6.2 |  |  |  |  |  |  |  |  |  |  |  |  |  |  |  |  | CCCCCCCC[C@H]1N[C@H](CO)[C@@H](O)[C@@H]1O
14 |  | 8.6 | 25.6 | 117 | 14.8 | 13 | 8.3 | 1.2 | 2.2 | 30 | 0 | 0 | 0 | 16.6 | 6.5 | 12.6 | inhibition [20]: 25.2%; inhibition [21]: 26.8%; inhibition [18]: 41.8% | O[C@@H]1[C@@H](O)CN[C@H]1c1ccc(F)cc1

Source: ChEMBL document CHEMBL5137043, “trans, trans-2-C-Aryl-3,4-dihydroxypyrrolidines as potent and selective β-glucosidase inhibitors: Pharmacological chaperones for Gaucher disease” (Eur J Med Chem, 2022)
